Data: article PMC4769701, “Discovery and characterization of a high-affinity and high-specificity peptide ligand LXY30 for in vivo targeting of α3 integrin-expressing human tumors” (EJNMMI Research, 2016)
Positions of bridges follow the written chain, without caps; N, C: chain ends. Non-standard residues stand in square brackets, D forms with d. Residues, ends and D or L forms follow the SMILES beside them. Phe(3,4,5-F3) = N[C@@H](Cc1cc(F)c(F)c(F)c1)C(=O)O; Phe(3,5-F2) = N[C@@H](Cc1cc(F)cc(F)c1)C(=O)O; Hyp = O=C(O)[C@@H]1C[C@@H](O)CN1

Key:
[1] = molecular target: T1, α3β1 integrin-expressing U-87MG glioblastoma cells (Homo sapiens, UniProt P26006); test: biochemical; format: binding; conditions: for Relative binding index: peptide 0.4 μM competing with 0.5 μM LXY1-biotin on U-87MG cells, relative to LXY1, greater RBI = higher affinity; for IC50: series of concentrations competing with 0.5 μM LXY1-biotin binding to U-87MG cells
T1 construct: we incubated U-87MG cells which express α3β1 integrin; endogenous in cells; host or cells: U-87MG human glioblastoma cells
Procedure: (§1) Confluent tumor cells (80-90 %) were dissociated with 0.05 % trypsin-EDTA and neutralized with culture medium. To determine the expression of α3 and β1 integrins, 1 μg of anti-α3 or anti-β1 antibody was mixed with 1 million cells for 30 min, followed by anti-mouse IgG-PE incubation and flow cytometry (Coulter XL-MCL). […] Then each sample was washed three times with 1 mL PBS containing 1 % FBS. Samples thereafter were incubated with a 1:500 dilution of streptavidin-PE (1 mg/mL) for 30 min on ice followed by a single wash with 1 mL of PBS containing 1 % FBS. Finally, the samples in PBS were analyzed by flow cytometry. […] The mixture was then incubated with cancer cells followed by streptavidin-PE. Samples were analyzed by flow cytometry, and mean fluorescence intensity (MFI) was decided for each individual sample. […] For blocking experiments, the samples were incubated with non-biotinylated LXY30, anti-α3, or anti-β1 antibody for 30 min prior to incubation with 20 nM biotinylated LXY30.

[2] = system: subcutaneous U-87MG xenograft tumors; test: In vivo NIRF optical imaging, subcutaneous xenograft; set-up: species or system nude mice; conditions: for improvement in tumor targeting over LXY1: optical imaging, U-87MG glioblastoma xenograft model, data not shown
Description: Halogen lamp light source was set to maximum.

H1650 = test: LXY30 binding by flow cytometry; set-up: species or system human; conditions: 1µM LXY30; H1650, lung, bronchoalveolar
Procedure: as §1, with “(80–90” for “(80-90”
(§2) *(MFI W/ LXY30)/ (MFI W/O LXY30): Mean Fluorescence Intensity of cells incubated with 1µM LXY30 divided by Mean Fluorescence Intensity of cells without incubation with LXY30.
(§3) Mean Fluorescence Intensity (MFI) was used as the quantitative measurement. The binding strength was grouped into five categories based on the value. “0”: 1 “1+”: 1.1~4.9 “2+”: 5~19.9 “3+”: 20~79.9 “4+”: > or = 80-fold

H2228 = test: LXY30 binding by flow cytometry; set-up: species or system human; conditions: 1µM LXY30; H2228, lung, adenocarcinoma
Procedure: as §1, with “(80–90” for “(80-90”
as §2, §3

H3255 = test: LXY30 binding by flow cytometry; set-up: species or system human; conditions: 1µM LXY30; H3255, lung, adenocarcinoma
Procedure: as §1, with “(80–90” for “(80-90”
as §2, §3

MCF7 = test: LXY30 binding by flow cytometry; set-up: species or system human; conditions: 1µM LXY30; MCF7, breast, luminal A
Procedure: as §1, with “(80–90” for “(80-90”
as §2, §3

H1975 = test: LXY30 binding by flow cytometry; set-up: species or system human; conditions: 1µM LXY30; H1975, lung, adenocarcinoma
Procedure: as §1, with “(80–90” for “(80-90”
as §2, §3

H460 = test: LXY30 binding by flow cytometry; set-up: species or system human; conditions: 1µM LXY30; H460, lung, large cell
Procedure: as §1, with “(80–90” for “(80-90”
as §2, §3

SKBR3 = test: LXY30 binding by flow cytometry; set-up: species or system human; conditions: 1µM LXY30; SKBR3, breast, HER2
Procedure: as §1, with “(80–90” for “(80-90”
as §2, §3

T47D = test: LXY30 binding by flow cytometry; set-up: species or system human; conditions: 1µM LXY30, breast, luminal A
Procedure: as §1, with “(80–90” for “(80-90”
as §2, §3

A549 = test: LXY30 binding by flow cytometry; set-up: species or system human; conditions: 1µM LXY30; A549, lung, adenocarcinoma
Procedure: as §1, with “(80–90” for “(80-90”
as §2, §3

HCC827 = test: LXY30 binding by flow cytometry; set-up: species or system human; conditions: 1µM LXY30; HCC827, lung, adenocarcinoma
Procedure: as §1, with “(80–90” for “(80-90”
as §2, §3

BT-20 = test: LXY30 binding by flow cytometry; set-up: species or system human; conditions: 1µM LXY30; BT-20, breast, basal like
Procedure: as §1, with “(80–90” for “(80-90”
as §2, §3

MDA-MB 231 = test: LXY30 binding by flow cytometry; set-up: species or system human; conditions: 1µM LXY30; MDA-MB 231, breast, basal like
Procedure: as §1, with “(80–90” for “(80-90”
as §2, §3

[3] = In vitro stability assay in human plasma; format: in vitro ADME; conditions: 90% human plasma (EDTA, healthy donors); 200 µM in 90% human plasma, 37°C, up to 8 days, RP-HPLC; t1/2=1/kobs·ln(2)
Procedure: Figure S3. The in vitro stability of LXY30 in human plasma. LXY30 was incubated with 90% human plasma from healthy donor at 37°C for up to 8 days. The peptide concentrations were determined by integration of the LXY30 peak (area) from reversed-phase high-performance liquid chromatography (RP-HPLC) chromatograms at UV 214 nm. The half-life of LXY30 in the plasma was calculated as 16.0 days using the formula t1/2=1/kobs·ln(2). Assays were performed in triplicate.
Human plasma was separated from the peripheral blood collected in the EDTA-containing blood collection tube from healthy donors. One hundred microliters of LXY30 solution (2 mM in water) was mixed with 900 µL of plasma (final concentration of LXY30 was 200 µM) and incubated at 37°C under sterile conditions. […] A control plasma sample without LXY30 but treated in the same manner was also analyzed. […]
RP-HPLC analysis was performed on the Waters 2996 HPLC system equipped with a Luna® analytical column from Phenomenex (5 µm, C18, 100 A°, 250 x 4.6 mm). […] The relative concentrations of the remaining LXY30 were analyzed by the integration of the absorbance at 214 nm (area).
Half-life (t1/2) for LXY30 in the plasma solution was calculated from plots of the natural logarithm of the residual concentration against time using the formula t1/2=1/kobs·ln(2), where kobs is the apparent first order rate constant for the observed degradation.

[4] = molecular target: T2, α3 subunit of α3β1 integrin on U-87MG cells (Homo sapiens, UniProt P26006); test: Blocking of LXY30-biotin binding to U-87MG cells, flow cytometry; conditions: 100 μM free peptide pre-incubated 30 min before 20 nM LXY30-biotin
T2 construct: we incubated U-87MG cells which express α3β1 integrin; endogenous in cells; host or cells: U-87MG human glioblastoma cells
Procedure: as §1, with “(80–90” for “(80-90”
Fig. 2 Synthesis and chemical structures of several peptide conjugates and binding specificity of LXY30 to U-87MG cells. The synthesis and chemical structures of peptide conjugates LXY30-biotin, LXY30-FITC, and scrambled-LXY30-FITC (S-LXY30-FITC) used for in vitro and in vivo characterization, as well as imaging studies were shown (a). […]

T1 sequence (P26006 33-872 limits assumed): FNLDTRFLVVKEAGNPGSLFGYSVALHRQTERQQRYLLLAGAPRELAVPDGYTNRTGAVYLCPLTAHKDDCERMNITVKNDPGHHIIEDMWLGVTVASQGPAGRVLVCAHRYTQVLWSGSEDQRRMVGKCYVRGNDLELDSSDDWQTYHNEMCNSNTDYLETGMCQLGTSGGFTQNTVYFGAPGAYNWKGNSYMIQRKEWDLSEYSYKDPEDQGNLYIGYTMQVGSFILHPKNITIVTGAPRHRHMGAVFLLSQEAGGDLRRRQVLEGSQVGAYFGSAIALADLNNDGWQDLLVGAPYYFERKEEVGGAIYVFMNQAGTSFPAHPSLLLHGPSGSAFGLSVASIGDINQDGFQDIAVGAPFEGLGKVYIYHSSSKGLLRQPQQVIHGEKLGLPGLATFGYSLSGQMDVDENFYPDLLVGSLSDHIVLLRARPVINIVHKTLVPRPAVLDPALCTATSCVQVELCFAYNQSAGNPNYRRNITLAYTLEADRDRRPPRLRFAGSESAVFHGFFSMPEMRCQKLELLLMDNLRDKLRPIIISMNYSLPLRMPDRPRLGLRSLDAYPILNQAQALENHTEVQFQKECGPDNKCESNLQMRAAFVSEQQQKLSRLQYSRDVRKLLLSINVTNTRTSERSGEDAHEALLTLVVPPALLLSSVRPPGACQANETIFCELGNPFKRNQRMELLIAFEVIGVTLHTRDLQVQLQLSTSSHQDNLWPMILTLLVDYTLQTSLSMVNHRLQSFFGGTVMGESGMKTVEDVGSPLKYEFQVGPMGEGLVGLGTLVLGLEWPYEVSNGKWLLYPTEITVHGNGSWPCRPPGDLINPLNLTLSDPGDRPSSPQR
T1 sequence (P26006 873-1051 partner limits assumed): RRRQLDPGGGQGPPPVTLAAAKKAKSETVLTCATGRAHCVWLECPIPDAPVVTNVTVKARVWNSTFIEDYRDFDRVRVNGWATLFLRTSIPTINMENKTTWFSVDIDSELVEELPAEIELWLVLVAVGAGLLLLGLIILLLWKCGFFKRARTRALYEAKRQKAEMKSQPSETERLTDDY
T1 sequence (P05556 21-798 partner): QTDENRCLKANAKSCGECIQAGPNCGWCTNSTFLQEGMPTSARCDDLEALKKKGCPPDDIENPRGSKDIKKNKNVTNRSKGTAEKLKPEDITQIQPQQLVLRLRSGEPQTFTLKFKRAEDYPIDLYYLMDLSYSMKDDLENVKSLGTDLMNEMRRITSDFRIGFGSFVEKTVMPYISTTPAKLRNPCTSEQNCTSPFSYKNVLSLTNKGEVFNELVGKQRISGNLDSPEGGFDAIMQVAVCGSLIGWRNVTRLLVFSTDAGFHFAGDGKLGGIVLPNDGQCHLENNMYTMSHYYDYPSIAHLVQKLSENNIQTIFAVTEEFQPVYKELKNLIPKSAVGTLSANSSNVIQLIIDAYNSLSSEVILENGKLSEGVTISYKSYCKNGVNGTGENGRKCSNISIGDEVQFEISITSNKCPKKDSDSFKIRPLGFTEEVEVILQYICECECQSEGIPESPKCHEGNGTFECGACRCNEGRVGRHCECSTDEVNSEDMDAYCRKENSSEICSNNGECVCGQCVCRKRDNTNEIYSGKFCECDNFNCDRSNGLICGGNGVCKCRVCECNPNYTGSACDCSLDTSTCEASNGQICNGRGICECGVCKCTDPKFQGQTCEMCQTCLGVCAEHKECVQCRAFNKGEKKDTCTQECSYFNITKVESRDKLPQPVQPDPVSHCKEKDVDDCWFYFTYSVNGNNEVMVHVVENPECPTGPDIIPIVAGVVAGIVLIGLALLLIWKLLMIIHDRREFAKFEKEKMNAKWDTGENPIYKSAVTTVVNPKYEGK
T2 sequence (P26006 33-872 limits assumed): as the sequence (P26006 33-872 limits assumed) above
T2 sequence (P26006 873-1051 partner limits assumed): as the sequence (P26006 873-1051 partner limits assumed) above
T2 sequence (P05556 21-798 partner): as the sequence (P05556 21-798 partner) above

Compound: NC(=O)C[C@@H]1NC(=O)[C@@H]2C[C@@H](O)CN2C(=O)CNC(=O)[C@H](Cc2cc(F)cc(F)c2)NC(=O)CNC(=O)[C@@H](CC(=O)O)NC(=O)[C@H](N)CSSC[C@H](C(N)=O)NC1=O [LXY4, cdG-Phe(3,5-diF)-G-Hyp-Nc] (H-[dC][dD]G[Phe(3,5-F2)]G[Hyp]N[dC]-NH2; disulfide 1-8; N-terminus assumed)
- Relative binding index [1]: 1.36 ± 0.11
- IC50 [1]: 0.41 ± 0.03 µM
- improvement in tumor targeting over LXY1 [2]: did not show improvement

Compound: N=C(N)NCCC[C@H](NC(=O)[C@H]1CSSC[C@@H](N)C(=O)N[C@H](CC(=O)O)C(=O)NCC(=O)N[C@@H](Cc2cc(F)c(F)c(F)c2)C(=O)NCC(=O)N2C[C@H](O)C[C@H]2C(=O)N[C@@H](CC(N)=O)C(=O)N1)C(N)=O [LXY7] (H-[dC][dD]G[Phe(3,4,5-F3)]G[Hyp]N[dC]R-NH2; disulfide 1-8; N-terminus assumed)
- Relative binding index [1]: 1.62 ± 0.10
- IC50 [1]: 0.13 ± 0.012 µM

Compound: N=C(N)NCCC[C@H](NC(=O)[C@H]1CSSC[C@@H](N)C(=O)N[C@H](CC(=O)O)C(=O)NCC(=O)N[C@@H](Cc2cc(F)cc(F)c2)C(=O)NCC(=O)N2C[C@H](O)C[C@H]2C(=O)N[C@@H](CC(N)=O)C(=O)N1)C(N)=O [LXY30, cdG-Phe(3,5-diF)-G-Hyp-NcR] (H-[dC][dD]G[Phe(3,5-F2)]G[Hyp]N[dC]R-NH2; disulfide 1-8; N-terminus assumed)
- (MFI W/ LXY30)/ (MFI W/O LXY30) (H1650): 4+ (“4+”: > or = 80-fold)
- (MFI W/ LXY30)/ (MFI W/O LXY30) (H2228): 4+ (“4+”: > or = 80-fold)
- (MFI W/ LXY30)/ (MFI W/O LXY30) (H3255): 2+ (“2+”: 5~19.9)
- (MFI W/ LXY30)/ (MFI W/O LXY30) (MCF7): 2+ (“2+”: 5~19.9)
- (MFI W/ LXY30)/ (MFI W/O LXY30) (H1975): 4+ (“4+”: > or = 80-fold)
- (MFI W/ LXY30)/ (MFI W/O LXY30) (H460): 1+ (“1+”: 1.1~4.9)
- (MFI W/ LXY30)/ (MFI W/O LXY30) (SKBR3): 1+ (“1+”: 1.1~4.9)
- (MFI W/ LXY30)/ (MFI W/O LXY30) (T47D): 1+ (“1+”: 1.1~4.9)
- (MFI W/ LXY30)/ (MFI W/O LXY30) (A549): 4+ (“4+”: > or = 80-fold)
- (MFI W/ LXY30)/ (MFI W/O LXY30) (HCC827): 4+ (“4+”: > or = 80-fold)
- (MFI W/ LXY30)/ (MFI W/O LXY30) (BT-20): 2+ (“2+”: 5~19.9)
- (MFI W/ LXY30)/ (MFI W/O LXY30) (MDA-MB 231): 4+ (“4+”: > or = 80-fold)
- half-life at 200 µM [3]: 16 days
- fold higher binding affinity compared to LXY1 ([1]; U-87MG cells, from IC50 values): 44 fold
- Relative binding index [1]: 1.68 ± 0.10
- IC50 [1]: 0.08 ± 0.01 µM
- blocking of LXY30-biotin binding by free peptide [4]: inhibited or prevented
- MFI of tumor, fold over LXY1 ([2]; tail vein, 1.8 nmol complex, ROI on xenograft tumor): 1.4 folds

Compound: cdG-Tyr(3-NO2)-G-Hyp-Nc [LXY3]
- improvement in tumor targeting over LXY1 [2]: did not show improvement
